Measurements reported in ChEMBL document CHEMBL1201862, “PubChem BioAssay data set” (2004).
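Results reflect a 48-hour exposure of cells in 96-well plates to compound at five concentrations. GI50 = concentration required for 50% inhibition of growth.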 Calls of active or inactive are those of the source. Cut-off read from the data, not from the text of the source: active = GI50 up to about 1.1 µM and inactive = higher.

Assays:
Assay in all cases: NCI-60 cell line screen, 48 h
A549 = tested on: A549
BT-549 = tested on: BT-549
EKVX = tested on: EKVX
HCT-116 = tested on: HCT-116
HOP-62 = tested on: HOP-62
Hs-578T = tested on: Hs-578T
K562 = tested on: K562
KM12 = tested on: KM12
LOX IMVI = tested on: LOX IMVI
MDA-MB-435 = tested on: MDA-MB-435
Malme-3M = tested on: Malme-3M
NCI-H23 = tested on: NCI-H23
OVCAR-8 = tested on: OVCAR-8
RXF 393 = tested on: RXF 393
SF-268 = tested on: SF-268
SF-539 = tested on: SF-539
SNB-19 = tested on: SNB-19
T47D = tested on: T47D
U-251 = tested on: U-251
UACC-257 = tested on: UACC-257

Measured: GI50

C=C(Cl)C(Cl)(CBr)CCCC(C)(C)Cl (stereo not given)
inactive: A549 14.6 µM | BT-549 52 µM | EKVX 18.5 µM | HCT-116 14.1 µM | HOP-62 4.26 µM | Hs-578T 2.98 µM | K562 > 42 µM | KM12 1.7 µM | LOX IMVI 11.9 µM | MDA-MB-435 27.2 µM | Malme-3M 18 µM | NCI-H23 45 µM | OVCAR-8 18.7 µM | RXF 393 17.7 µM | SF-268 12.7 µM | SF-539 2.47 µM | SNB-19 14.7 µM | T47D 1.8 µM | U-251 2.11 µM | UACC-257 3.15 µM
